Assay results as given in US8680059B2, “Oligopeptide acetate and formulations thereof” (Biotempt B.V., priority 1998, dated 2014).
Values joined by “and” are separate entries in the source; they are usually repeats but may differ in a detail not shown here. Equal entries are not always repeated.

Experiments:
[1] = tested on: mice, high dose LPS septic shock; settings: single treatment after high dose LPS injection; cited from earlier work
[2] = tested on: RAW 264.7 murine macrophage cell line; assay: Nitrite (NO) production in LPS-stimulated RAW 264.7 macrophages; format: cell-based; settings: co-stimulated with LPS 10 microg/ml, peptide even at 1 pg/ml, 24 hours
Procedure: Cell culture. The RAW 264.7 murine macrophage cell line, obtained from American Type Culture Collection (Manassas, Va., USA), were cultured at 37° C. in 5% CO2 using DMEM containing 10% fetal calf serum (FCS), 50 U/ml penicillin, 50 μg/ml streptomycin, […] Na-pyruvate, 2 mM glutamine and 50 μM 2-mercaptoethanol (Bio Whittaker, Europe). The medium was changed every 2 days.
Nitrite measurements. Nitrite production was measured in the RAW 264.7 macrophage supernatants. The cells (7.5×10^5/ml) were cultured in 48-well plates in […] of culture medium. The cells were stimulated with LPS (10 microg/ml) and/or peptide (1 pg/ml, 1 ng/ml, 1 μg/ml) for 24 hours, then the culture media were collected. Nitrite was measured by adding 100 microl of Griess reagent (Sigma) to 100 microl samples of culture medium. The OD540 was measured using a microplate reader, and the nitrite concentration was calculated by comparison with the OD540 produced using standard solutions of sodium nitrite in the culture medium.

[3] = tested on: mice, 25 minutes renal ischemia/reperfusion; assay: Mouse renal ischemia reperfusion test (mortality, BUN/serum urea); format: in vivo; parameters: BUN, mean / Urea level: unit not given here; settings: 5 mg/kg i.v.
Procedure: SEQ ID NO:2 was tested and compared with PBS (control) in a double blind animal study for the peptide's relative ability to aid recovery in a mouse renal ischemia reperfusion test. In this test, the mice were anesthetized, and one kidney from each mouse was removed. The other kidney was tied off for 25 minutes, and the serum urea levels were allowed to increase. Both before and after tying off, the peptide was administered to thirty (30) different mice (5 mg oligopeptide/kg body mass intravenously), after which, the mortality of the mice was determined for each oligopeptide as well as was the BUN concentration at two hours, 24 hours and 72 hours.
Under inhalation anesthesia, the left kidney with its artery and vein was isolated and occluded for 25 minutes using a microvascular clamp. During surgery animals were placed on a heating path to maintain body temperature at 37° C. Five minutes before placing the clamp, and 5 minutes before releasing the clamp, 5 mg/kg of peptide, dissolved in 0.1 mL of sterile saline, was administered intravenously. After reperfusion of the left kidney the right kidney was removed. Kidney function was assessed by measuring blood urea nitrogen before clamping, and at 2, 24, and 72 hours after reperfusion.
To determine dose-response relationships SEQ ID NO:2, was tested in a dose-response manner in the mice test as described above. Peptides were tested at 0.3, 1, 3, 10 and 30 mg/kg dosages given as described in Example I. Serum urea levels are presented in Table 3.

[4] = tested on: BALB/c mice injected i.p. with LPS (E. coli 026:B6); assay: LPS-induced septic shock (endotoxin model) in BALB/c mice; format: in vivo, mouse
Procedure: Mice used in sepsis or septic shock experiments: Female BALB/c mice of 8-12 weeks of age were used for all experiments. The animals were bred in our facility under specific pathogen-free conditions according to the protocols described in the Report of European Laboratory Animal Science Associations (FELASA) Working group on Animal Health (Laboratory Animals 28: 1-24, 1994).
Injection protocols: For the endotoxin model, BALB/c mice were injected i.p. with 150-300 μg LPS (E. coli 026:B6; Difco Lab., Detroit, Mich., USA). Control groups were treated with PBS i.p. only. To test the effect of peptides, they were dissolved in PBS and injected i.p. at predetermined points in time after LPS treatment.
Mice were scored for sickness severity using the following measurement scheme: • 0 No abnormalities. • 1 Percolated fur, but no detectable behavior differences compared to normal mice. • 2 Percolated fur, huddle reflex, responds to stimuli (such as tap on cage), just as active during handling as healthy mouse. • 3 Slower response to tap on cage, passive or docile when handled, but still curious when alone in a new setting. • 4 Lack of curiosity, little or no response to stimuli, quite immobile. • 5 Labored breathing, inability or slow to self-right after being rolled onto back (moribund, sacrificed). • D Dead […]
A comparative trial was set up to compare peptide MTR and SEQ ID NO:2. The comparative trial comprised 6 groups of 6 animals; two groups (1A and 1B) receiving placebo (PBS), one group (2) peptide MTR (source Pepscan, Lelystad, NL), one group (3) receiving peptide MTR (source Ansynth), one group (4) receiving peptide SEQ ID NO:2 (source Pepscan) and one group peptide SEQ ID NO:2 (source Ansynth). Peptide/placebo in these groups was administered 2 hours after LPS. LPS (source) was used at 10-11 mg/kg. Sickness scores were done at 0, 2, 22 26 42 and 48 hours after LPS injection.

[5] = peptide twice (t = 2 hr and 24 hr) 5 mg/kg, LPS dose 11, t = 24 hr
[6] = peptide twice (t = 2 hr and 24 hr) 5 mg/kg, LPS dose 11, t = 48 hr
[7] = single dose 5 mg/kg, LPS dose 7*, t = 24 hr
[8] = single dose 5 mg/kg, LPS dose 8, t = 24 hr
[9] = single dose 5 mg/kg, LPS dose 8, t = 48 hr
[10] = single dose 5 mg/kg, LPS dose 10, t = 24 hr
[11] = single dose 5 mg/kg, LPS dose 10, t = 48 hr

For “VLPALP [6-mer oligopeptide derived from the beta-chain of human chorionic gonadotropin hormone (Khan et al. 2002)]”, which “septic shock in mice” value [1] is on record?
Its value is “inhibited septic shock in mice”.

Which results are given for “LQGV [tetrapeptide from loop 2 of the beta-subunit of hCG]”?
NO production [2]: inhibited the production of NO; BUN, mean ([3]; 2 hr after reperfusion): 17.53; BUN, mean ([3]; 24 hr after reperfusion): 56.08; BUN, mean ([3]; 72 hr after reperfusion): 73.18; BUN, mean ([3]; t = 0 hr (before clamping)): 7.518; effect against LPS-induced sepsis ([4]; 5 mg/kg i.p. after varying doses of LPS (Table 6)): marked protective effect; number of mice with sickness score 5 ([4]; peptide twice (t = 2 hr and 24 hr) 5 mg/kg, LPS dose 10.5, t = 24 hr): 5; number of mice with score D (dead) ([4]; peptide twice (t = 2 hr and 24 hr) 5 mg/kg, LPS dose 10.5, t = 48 hr): 5; number of mice with sickness score 4 [4, 5]: 2; number of mice with sickness score 5 [4, 5]: 4; number of mice with score D (dead) [4, 6]: 4; number of mice with sickness score 4 [4, 6]: 2; number of mice with sickness score 1 ([4]; single dose 5 mg/kg, LPS dose 7**, t = 24 hr): 6; number of mice with sickness score 1 ([4]; single dose 5 mg/kg, LPS dose 7**, t = 48 hr): 6; number of mice with sickness score 1 [4, 7]: 2; number of mice with sickness score 2 [4, 7]: 4; number of mice with sickness score 1 ([4]; single dose 5 mg/kg, LPS dose 7*, t = 48 hr): 6; number of mice with sickness score 1 [4, 8]: 3; number of mice with sickness score 3 [4, 8]: 1; number of mice with sickness score 2 ([4]; single dose 5 mg/kg, LPS dose 8, t = 24 hr, 5 mg/kg): 5 and 3; number of mice with sickness score 0 [4, 9]: 4; number of mice with sickness score 2 [4, 9]: 1; number of mice with sickness score 1 [4, 10]: 2; number of mice with sickness score 3 [4, 10]: 1; number of mice with sickness score 4 [4, 10]: 1; number of mice with score D (dead) [4, 11]: 1; number of mice with sickness score 2 [4, 11]: 1; number of mice with sickness score 1 ([4]; single dose 5 mg/kg, LPS dose 10, t = 48 hr, 5 mg/kg): 6 and 4; % survival ([4]; single injection 5 mg/kg 2 hours after LPS (300 μg), time 0 hours): 100%; % survival ([4]; single injection 5 mg/kg 2 hours after LPS, time 14 hours): 100%; % survival ([4]; single injection 5 mg/kg 2 hours after LPS, time 24 hours): 100%; % survival ([4]; single injection 5 mg/kg 2 hours after LPS, time 48 hours): 100%; % survival ([4]; single injection 5 mg/kg 2 hours after LPS, time 84 hours): 100%; % survival ([4]; single injection 5 mg/kg 24 hours after LPS (300 μg), time 0 hours): 100%; % survival ([4]; single injection 5 mg/kg 24 hours after LPS, time 14 hours): 100%; % survival ([4]; single injection 5 mg/kg 24 hours after LPS, time 24 hours): 100%; % survival ([4]; single injection 5 mg/kg 24 hours after LPS, time 48 hours): 0%; % survival ([4]; single injection 5 mg/kg 24 hours after LPS, time 84 hours): 0%
